This note sets out measurements from US6359156B1, “Oxime amides and hydrazone amides having fungicidal activity” (Monsanto Technology LLC, priority 1999, dated 2002).

Each structure is given as a SMILES string. Read-outs that look alike come from different tables or passages of the source.

Test [1] concerns Ggt. In words: In vitro assay: inhibition of mycelial growth of Ggt on minimal media agar. Format: cell-based, Gaeumannomyces graminis var. tritici. Particulars: Gaeumannomyces graminis, read-out: % Control of Ggt In Vitro. Here is the method:
The test compounds (0.25 mL of an appropriate stock solution in acetone) were incorporated into 25 mL minimal media agar [prepared by autoclaving a solution of 17.5 g Czapek Dox broth (Difco), 7.5 g purified agar or Bacto-agar (Difco), and 500 mL distilled/deionized water, and then adding 50 μL of 1 mg/mL thiamine hydrochloride and 50 μL of 1 mg/mL biotin in 5% ethanol] and plates were prepared.
Each plate was inoculated by placing in a triangular shape three 4 mm plugs of Ggt grown on the minimal media agar described above. The plates were incubated in the dark at 19-20° C. for 4-5 days. The growth of the fungus was measured as the diameter of the mycelial growth and the result expressed as Percent Inhibition, calculated as [1−[(mm growth on treated plate−4)/(mm growth on control plate−4)]]×100.

The test system of test [2] is Ggt. In words: 4 Week In Vivo Seed Treatment Assay on "Bergen" wheat in soil infested with Ggt. On the set-up: species or system Gaeumannomyces graminis var. tritici. Here is the method:
The test compounds were tested for control of Ggt on “Bergen” varieties of wheat grown in 3 inch square pots containing soil (equal to thirds of Metro-mix, sand, and silt-loam filed soil, all steam sterilized). Seeds were treated with a solution of a test compound in acetone. Using a 10,000 ppm stock for each compound, the following serial dilutions were prepared.
When 1 mL of the stock and dilutions was applied to 10 gm of seed, the resultant application rates were 100 and 25 g of active ingredient per 100 kg of seed.
A treatment jar was rinsed 2 times with 3 mL of acetone. The 1 mL of the solution was swirled to cover the base of the jar. 10 gm of seed was added to the jar and capped, after which the jar was swirled and shaken until the seeds got a rapid and even coverage. After about 30-50 seconds, the lid was removed while the shaking was continued. After 1 minute, the jar was set aside to dry. When dry, the seed was poured into an envelope for storage until planting.
Compounds were tested for control of Ggt on “Bergen” varieties of wheat grown in 3 inch square pots containing soil infested with Ggt. The infestation was accomplished by mixing the soil with an inoculum prepared by growing Ggt on infested sterile oats (400 cc whole oats, 350 mL deionized water, autoclaved). After a one month incubation period at room temperature, the oats were dried and mixed with the soil at 4% v/v.
The roots were harvested, washed, and rated after 4 weeks. Each treatment was assigned a percent (%) diseased root area value using 1, 5, 10, 20, 30, 40, 50, 60, 80, or 100% ratings. Each pot of plants got a single rating.

The mark [3] stands for this setting: 0.01 ppm in agar, 4-5 days at 19-20° C.
[4] abbreviates: 0.1 ppm in agar, 4-5 days at 19-20° C.
[5] abbreviates: 1 ppm in agar, 4-5 days at 19-20° C.
[6] abbreviates: 10 ppm in agar, 4-5 days at 19-20° C.
[7] abbreviates: 25 g ai/100 kg seed, roots rated after 4 weeks.
Where [8] appears, read: 100 g ai/100 kg seed, roots rated after 4 weeks.

With `CCCNC(=O)/C(=N\OC(C)(CC)CC)c1ccccc1` [Example 7], the inhibition of growth at 0.01 ppm in the test with Ggt [1] (setting [3]) was 16%. The inhibition of growth at 0.1 ppm in the test with Ggt [1] (setting [4]) came to 98%. Besides, the inhibition of growth at 1 ppm in the test on Ggt [1] (setting [5]) turned out to be 100%. Also, the inhibition of growth at 10 ppm in the test with Ggt [1] (setting [6]) stood at 100%.
`CCCNC(=O)/C(=N/NC(C)(C)C)c1ccccc1` [Example 4]: the inhibition of growth at 0.1 ppm with Ggt [1] (setting [4]) is 0%. The inhibition of growth at 1 ppm with Ggt [1] (setting [5]) turned out to be 0%. Moreover, the inhibition of growth at 10 ppm in the test with Ggt [1] (setting [6]) came out at 43%.
Regarding `CCCNC(=O)/C(=N\OC(C)(C)C)c1cccs1` [Example 14], the inhibition of growth at 0.1 ppm in the test on Ggt [1] (setting [4]) is 96%. The inhibition of growth at 1 ppm in the test on Ggt [1] (setting [5]) was 100%. Moreover, in the test with Ggt [1] (setting [6]), the inhibition of growth at 10 ppm worked out at 100%.
For `C=CCNC(=O)C(=NOC(C)(C)C)c1ccccc1` [Example 12], the inhibition of growth at 0.1 ppm in the test on Ggt [1] (setting [4]) came to 67%. For the same compound, in the test with Ggt [1] (setting [5]), the inhibition of growth at 1 ppm stood at 98%. In addition, in the test with Ggt [1] (setting [6]), the inhibition of growth at 10 ppm was 100%.
In the same order, the values of `CCCNC(=O)/C(=N/OC(C)(C)CC)c1ccccc1` [Example 6] are 2%, 2% and 20%.
As to `C=CCNC(=O)c1c([Si](C)(C)C)sc(C)c1C` [Standard, reference compound], in the test with Ggt [1], the inhibition of growth at 0.01 ppm stood at 100%, the inhibition of growth at 0.1 ppm is 100%, the inhibition of growth at 1 ppm worked out at 100% and the inhibition of growth at 10 ppm turned out to be 100%. Moreover, the “% Control of Ggt In Vivo” value in the test with Ggt [2] (25, roots rated after 4 weeks) was found to be 90%. Further, in the test with Ggt [2] (100, roots rated after 4 weeks), the “% Control of Ggt In Vivo” value was determined as 93%.
`CCCNC(=O)C(=NOC(C)(C)C)c1ccccc1F` [Example 11]: the inhibition of growth at 0.1 ppm in the test on Ggt [1] (setting [4]) was 0%. Further, the inhibition of growth at 1 ppm in the test on Ggt [1] (setting [5]) came out at 43%. Besides, the inhibition of growth at 10 ppm in the test with Ggt [1] (setting [6]) was 77%.
With `CCCNC(=O)/C(=N\OC(C)(C)C)c1ccccc1` [Example 1], the inhibition of growth at 0.01 ppm in the test on Ggt [1] (setting [3]) is 4%. Further, the inhibition of growth at 0.1 ppm with Ggt [1] (setting [4]) stood at 96%. Further, in the test on Ggt [1] (setting [5]), the inhibition of growth at 1 ppm was 100%. In addition, the inhibition of growth at 10 ppm with Ggt [1] (setting [6]) was determined as 100%. Further, the “% Control of Ggt In Vivo” value in the test on Ggt [2] (setting [7]) was found to be 71%; with Ggt [2] (setting [8]), 79%.
On to `CCCNC(=O)C(=NOC(C)(C)C)c1cccc(C)c1` [Example 10], for which, in the test on Ggt [1] (setting [4]), the inhibition of growth at 0.1 ppm is 5%. In the test on Ggt [1] (setting [5]), the inhibition of growth at 1 ppm stood at 32%. Also, the inhibition of growth at 10 ppm in the test with Ggt [1] (setting [6]) worked out at 80%.
In the same order, the values of `CCCNC(=O)/C(=N/OC(C)(C)C)c1ccccc1` [Example 2] are 27%, 0% and 0%.
Taken in the same sequence, the figures for `CCCNC(=O)C(=NOC(C)(C)C)c1ccc(C)cc1` [Example 9] were 7%, 37% and 80%.
As for `CCCNC(=O)/C(=N/OC(C)(CC)CC)c1ccccc1` [Example 8], in the test with Ggt [1] (setting [4]), the inhibition of growth at 0.1 ppm came to 2%. Further, the inhibition of growth at 1 ppm with Ggt [1] (setting [5]) came out at 80%. For the same compound, in the test with Ggt [1] (setting [6]), the inhibition of growth at 10 ppm was determined as 98%.
With `CCCNC(=O)/C(=N\NC(C)(C)C)c1ccccc1` [Example 3], in the test with Ggt [1] (setting [4]), the inhibition of growth at 0.1 ppm stood at 19%. Moreover, in the test on Ggt [1] (setting [5]), the inhibition of growth at 1 ppm was 89%. Further, the inhibition of growth at 10 ppm in the test on Ggt [1] (setting [6]) is 97%. Further, the “% Control of Ggt In Vivo” value amounted to 21% with Ggt [2] (setting [7]) and 0% with Ggt [2] (setting [8]).
For `C=CCNC(=O)C(=NNC(C)(C)C)c1ccccc1` [Example 13], the inhibition of growth at 0.1 ppm in the test with Ggt [1] (setting [4]) stood at 25%. In the test on Ggt [1] (setting [5]), the inhibition of growth at 1 ppm was 96%. Further, in the test with Ggt [1] (setting [6]), the inhibition of growth at 10 ppm amounted to 96%.
With `CCCNC(=O)C(=NOC(C)(C)C)c1ccco1` [Example 16], in the test with Ggt [1] (setting [4]), the inhibition of growth at 0.1 ppm is 24%. Besides, the inhibition of growth at 1 ppm in the test on Ggt [1] (setting [5]) stood at 51%. Besides, the inhibition of growth at 10 ppm with Ggt [1] (setting [6]) stood at 92%.
Take `CCCNC(=O)/C(=N\OC(C)(C)CC)c1ccccc1` [Example 5]: in the test with Ggt [1] (setting [3]), the inhibition of growth at 0.01 ppm worked out at 59%. Also, the inhibition of growth at 0.1 ppm with Ggt [1] (setting [4]) stood at 100%. Besides, in the test with Ggt [1] (setting [5]), the inhibition of growth at 1 ppm stood at 100%. For the same compound, the inhibition of growth at 10 ppm in the test on Ggt [1] (setting [6]) worked out at 100%.
Turning to `CCCNC(=O)/C(=N/OC(C)(C)C)c1cccs1` [Example 15], in the test on Ggt [1] (setting [4]), the inhibition of growth at 0.1 ppm is 10%. Besides, in the test with Ggt [1] (setting [5]), the inhibition of growth at 1 ppm came out at 20%. Besides, the inhibition of growth at 10 ppm with Ggt [1] (setting [6]) was 94%.
